Values of other authors as cited in patent US6187938A, “ω-amino acid derivatives, processes of their preparation and their use” (Bochemie, s.r.o., priority 1997, dated 2001).

System: skin
Conditions: in presence of petrolatum; Stoughton, McClure 1983

For CCCCCCCCCCCCN1CCCCCC1=O [laurocapram, 1-dodecylazacycloheptan-2-one], the “inhibition of permeation enhancing effect by paraffinic auxiliary substances (e.g., petrolatum)” value is given as “completely inhibit”.
